According to patent US9708286B2, “Ingenol-3-acylates III and ingenol-3-carbamates” (LEO Laboratories Limited, priority 2010, dated 2017):
Read-outs that look alike come from different tables or passages of the source.

What was measured:
Type in all cases: cell-based
[1] = tested on: PMN's (polymorphonuclear leukocytes); test: Neutrophil oxidative burst; settings: Leukocyte, 40 min, normalized to 5×10^−7 M PEP0005
How it was run: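 Human buffy-coat neutrophils (2.5×10^5/well) in HBSS with 0.1% BSA, 5 mM glucose treated with compound premixed with 10 μM hydroethidine for 40 min at RT; fluorescence read at 485/579 nm. Normalized to 5×10^−7 M PEP0005; Rel EC50 is midway between fitted top and bottom, Abs EC50 gives 50% of PEP0005 maximum.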

[2] = tested on: Primary human epidermal keratinocytes, HeKa; test: HeKa cytokine release (IL-8); settings: Homo sapiens, read-out: HeKa cytokine release (IL-8) Rel EC50 range
How it was run: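 Seeded cells exposed to compound dilutions for 6 h at 37° C; IL-8 in supernatant quantified by MSD sandwich electrochemiluminescence immunoassay. Effects normalized to positive control (1.5×10^−7 M PEP0005), four-parameter sigmoidal fit; Rel EC50 is concentration midway between fitted top and bottom.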

HeLa cells = test: Necrosis assay; settings: Homo sapiens, 0.5 h, read-out: HeLa necrosis EC50 range
How it was run: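 HeLa cells treated with compound at 10 μM to 400 μM (final) for 30 min at 37° C., viability then measured by PrestoBlue fluorescence (ex 535/em 630 nm). Normalized to 1% DMSO and 400 μM ingenol mebutate controls; AbsEC50 from four-parameter sigmoidal fit.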

[3] = read-out: Neutrophil oxidative burst Rel EC50 range, PMN from buffy coats, 40 min at RT, hydroethidine fluorescence

Structure (SMILES) | EC50 [1, 3] [nM] | EC50 ([2]; HEKa, 6 h) [nM] | EC50 (HeLa cells; HeLa) [nM] | EC50 ([1]; PMN from buffy coats, 40 min at RT, hydroethidine fluorescence, read-out: Neutrophil oxidative burst Rel EC50 range) [nM] | EC50 ([2]; HeKa cells, 6 h at 37° C., IL-8 by MSD assay, normalized to 1.5×10^−7 M PEP0005) [nM] | EC50 (HeLa cells; HeLa cells, 30 min at 37° C., PrestoBlue, AbsEC50, normalized to 400 μM ingenol mebutate) [nM]
CC1=C[C@]23C(=O)[C@@H](C=C(CO)[C@@H](O)[C@]2(O)[C@H]1OC(=O)N(C)c1ccccc1)[C@H]1[C@@H](C[C@H]3C)C1(C)C [Compound 705, Ingenol 3-(N-methyl-N-phenyl-carbamate)] | < 20 | < 20 | 150000 to 350000 |  |  | 
CCN(CC)C(=O)O[C@H]1C(C)=C[C@]23C(=O)[C@@H](C=C(CO)[C@@H](O)[C@]12O)[C@H]1[C@@H](C[C@H]3C)C1(C)C [Compound 706, Ingenol 3-(N,N-diethyl-carbamate)] | < 20 | 20 to 100 | > 350000 |  |  | 
CC1=C[C@]23C(=O)[C@@H](C=C(CO)[C@@H](O)[C@]2(O)[C@H]1OC(=O)N(C)C1CCCCC1)[C@H]1[C@@H](C[C@H]3C)C1(C)C [Compound 709, Ingenol 3-(N-cyclohexyl-N-methyl-carbamate)] | < 20 | < 20 | 150000 to 350000 |  |  | 
CC1=C[C@]23C(=O)[C@@H](C=C(CO)[C@@H](O)[C@]2(O)[C@H]1OC(=O)N1CCCC(C)(C)C1)[C@H]1[C@@H](C[C@H]3C)C1(C)C [Compound 713, Ingenol 3-(3,3-dimethyl-piperidine-1-carboxylate)] | 20 to 100 | < 20 | 150000 to 350000 |  |  | 
CC1=C[C@]23C(=O)[C@@H](C=C(CO)[C@@H](O)[C@]2(O)[C@H]1OC(=O)N(C)C1CCCc2ccccc21)[C@H]1[C@@H](C[C@H]3C)C1(C)C (stereo partly drawn) [Compound 714, Ingenol 3-(N-Methyl-N-tetralin-1-yl-carbamate)] | > 100 | < 20 | < 150000 |  |  | 
CC1=C[C@]23C(=O)[C@@H](C=C(CO)[C@@H](O)[C@]2(O)[C@H]1OC(=O)N(C)[C@@H](C)c1ccccc1)[C@H]1[C@@H](C[C@H]3C)C1(C)C [Compound 716, Ingenol 3-(N-methyl-N—((S)-1-phenethyl)-carbamate)] | 20 to 100 | < 20 | < 150000 |  |  | 
CC1=C[C@]23C(=O)[C@@H](C=C(CO)[C@@H](O)[C@]2(O)[C@H]1OC(=O)N(C)CC1CC1)[C@H]1[C@@H](C[C@H]3C)C1(C)C [Compound 717, Ingenol 3-(N-methyl-N-(cyclopropylmethyl)-carbamate)] | < 20 | < 20 | > 350000 |  |  | 
CC1=C[C@]23C(=O)[C@@H](C=C(CO)[C@@H](O)[C@]2(O)[C@H]1OC(=O)N(C)c1cccc(F)c1)[C@H]1[C@@H](C[C@H]3C)C1(C)C [Compound 718, Ingenol 3-(N-(3-fluoro-phenyl)-N-methyl-carbamate)] | < 20 | < 20 | 150000 to 350000 |  |  | 
CC1=C[C@]23C(=O)[C@@H](C=C(CO)[C@@H](O)[C@]2(O)[C@H]1OC(=O)N(C)c1cc(C)n(C)n1)[C@H]1[C@@H](C[C@H]3C)C1(C)C [Compound 721, Ingenol 3-(N-(1,5-dimethylpyrazol-3-yl)-N-methyl-carbamate)] | 20 to 100 | 20 to 100 | > 350000 |  |  | 
CC1=C[C@]23C(=O)[C@@H](C=C(CO)[C@@H](O)[C@]2(O)[C@H]1OC(=O)N(C)C1CCCC1)[C@H]1[C@@H](C[C@H]3C)C1(C)C [Compound 722, Ingenol 3-(N-cyclopentyl-N-methyl-carbamate)] | < 20 | 20 to 100 | > 350000 |  |  | 
CC1=C[C@]23C(=O)[C@@H](C=C(CO)[C@@H](O)[C@]2(O)[C@H]1OC(=O)N(C)C1CC1)[C@H]1[C@@H](C[C@H]3C)C1(C)C [Compound 723, Ingenol 3-(N-cyclopropyl-N-methyl-carbamate)] | < 20 | 20 to 100 | > 350000 |  |  | 
CC1=C[C@]23C(=O)[C@@H](C=C(CO)[C@@H](O)[C@]2(O)[C@H]1OC(=O)N1CCCc2ccccc21)[C@H]1[C@@H](C[C@H]3C)C1(C)C [Compound 726, Ingenol 3-(3,4-dihydro-2H-quinoline-1-carboxylate)] | 20 to 100 | < 20 | < 150000 |  |  | 
CC1=C[C@]23C(=O)[C@@H](C=C(CO)[C@@H](O)[C@]2(O)[C@H]1OC(=O)N1CCc2ccccc21)[C@H]1[C@@H](C[C@H]3C)C1(C)C [Compound 727, Ingenol 3-(indoline-1-carboxylate)] | < 20 | < 20 | < 150000 |  |  | 
CC1=C[C@]23C(=O)[C@@H](C=C(CO)[C@@H](O)[C@]2(O)[C@H]1OC(=O)N(C)c1ccc(Cl)cc1)[C@H]1[C@@H](C[C@H]3C)C1(C)C [Compound 729, Ingenol 3-(N-(4-chloro-phenyl)-N-methyl-carbamate)] | < 20 | < 20 | 150000 to 350000 |  |  | 
CC1=C[C@]23C(=O)[C@@H](C=C(CO)[C@@H](O)[C@]2(O)[C@H]1OC(=O)N(C)c1ccccc1C)[C@H]1[C@@H](C[C@H]3C)C1(C)C [Compound 732, Ingenol 3-(N-methyl-N-(2-methyl-phenyl)-carbamate)] | < 20 | < 20 | 150000 to 350000 |  |  | 
CCN(C(=O)O[C@H]1C(C)=C[C@]23C(=O)C(C=C(CO)[C@@H](O)[C@]12O)[C@H]1[C@@H](C[C@H]3C)C1(C)C)c1ccccc1 [Compound 734, Ingenol 3-(N-ethyl-N-phenyl-carbamate)] | 20 to 100 | < 20 | 150000 to 350000 |  |  | 
CC1=C[C@]23C(=O)[C@@H](C=C(CO)[C@@H](O)[C@]2(O)[C@H]1OC(=O)N1CC2CCC(CC2)C1)[C@H]1[C@@H](C[C@H]3C)C1(C)C [Compound 736, Ingenol 3-(3-azabicyclo[3.2.2]nonane-3-carboxylate)] |  |  |  | < 20 | < 20 | 150000 to 350000
CC1=C[C@]23C(=O)[C@@H](C=C(CO)[C@@H](O)[C@]2(O)[C@H]1OC(=O)N1CCOc2ccccc21)[C@H]1[C@@H](C[C@H]3C)C1(C)C [Compound 737, Ingenol 3-(2,3-dihydro-1,4-benzoxazine-4-carboxylate)] | < 20 | < 20 | < 150000 |  |  | 
CC1=C[C@]23C(=O)[C@@H](C=C(CO)[C@@H](O)[C@]2(O)[C@H]1OC(=O)N(C)c1ccccc1F)[C@H]1[C@@H](C[C@H]3C)C1(C)C [Compound 738, Ingenol 3-(N-(2-fluoro-phenyl)-N-methyl-carbamate)] | < 20 | 20 to 100 | 150000 to 350000 |  |  | 
CC1=C[C@]23C(=O)[C@@H](C=C(CO)[C@@H](O)[C@]2(O)[C@H]1OC(=O)N1c2ccccc2OCC1C)[C@H]1[C@@H](C[C@H]3C)C1(C)C (stereo partly drawn) [Compound 739, Ingenol 3-(3-methyl-2,3-dihydro-1,4-benzoxazine-4-carboxylate)] | < 20 | < 20 | < 150000 |  |  | 
CC1=C[C@]23C(=O)[C@@H](C=C(CO)[C@@H](O)[C@]2(O)[C@H]1OC(=O)N(C)c1cccc(C)c1)[C@H]1[C@@H](C[C@H]3C)C1(C)C [Compound 743, Ingenol 3-(N-methyl-N-(3-methyl-phenyl)-carbamate)] | < 20 | < 20 | 150000 to 350000 |  |  | 
CC1=C[C@]23C(=O)[C@@H](C=C(CO)[C@@H](O)[C@]2(O)[C@H]1OC(=O)N1CCNc2ccccc21)[C@H]1[C@@H](C[C@H]3C)C1(C)C [Compound 744, Ingenol 3-(3,4-dihydro-2H-quinoxaline-1-carboxylate)] | 20 to 100 | 20 to 100 | 150000 to 350000 |  |  | 
CC1=C[C@]23C(=O)[C@@H](C=C(CO)[C@@H](O)[C@]2(O)[C@H]1OC(=O)N1Cc2ccccc2C1)[C@H]1[C@@H](C[C@H]3C)C1(C)C [Compound 745, Ingenol 3-(isoindoline-2-carboxylate)] | < 20 | < 20 | 150000 to 350000 |  |  | 
CC1=C[C@]23C(=O)[C@@H](C=C(CO)[C@@H](O)[C@]2(O)[C@H]1OC(=O)N(C)CC1CCOCC1)[C@H]1[C@@H](C[C@H]3C)C1(C)C [Compound 746, Ingenol 3-(N-methyl-N-(tetrahydropyran-4-ylmethyl)-carbamate)] | 20 to 100 | > 100 | > 350000 |  |  | 
CC1=C[C@]23C(=O)[C@@H](C=C(CO)[C@@H](O)[C@]2(O)[C@H]1OC(=O)N(C)C1CCOCC1)[C@H]1[C@@H](C[C@H]3C)C1(C)C [Compound 747, Ingenol 3-(N-methyl-N-(tetrahydropyran-4-yl)-carbamate)] | 20 to 100 | > 100 | > 350000 |  |  | 
